According to patent US8203033B2, “Methods and compositions for providing tolerance to multiple herbicides” (Pioneer Hi-Bred International, Inc., priority 2005, dated 2012):

What was measured:
[1] = system: parent elite stiff stalk inbred corn; experiment: Postemergence test of herbicides on corn (fresh weight, visual injury); format: in vivo; details: 3472 g ae/ha
[2] = system: Heterozygous GAT-HRA corn; experiment: as above; format: in vivo; details: 3472 g ae/ha
[3] = system: GAT-HRA transgenic cotton plants; experiment: Greenhouse over-the-top herbicide spray of cotton; format: in vivo, Gossypium hirsutum
Excerpt: (§1) Cotton (Gossypium hirsutum) Coker 312 was transformed with a GAT polynucleotide (gat 4621) together with an Hra polynucleotide (SEQ ID NO:86) both operably linked to strong, constitutive plant viral promoters. The promoter linked to gat4621 contains a duplicated portion of the Strawberry Vein Banding Virus transcript promoter (Wang et al. Virus Genes 20: 11-17, 2000; Genbank X97304). The Hra gene was driven by a duplicated portion of the Mirabilis Mosaic Caulimovirus full-length transcript promoter (U.S. Pat. No. 6,420,547; Dey and Maiti, Transgenics 3:61-70, 1999). The transformation procedure used Agrobacterium tumefaciens containing an expression cassette with the genes to be transferred and cotyledon explant derived callus with some capacity to undergo embryogenesis. The callus was exposed to Agrobacterium for 48-72 hours. The callus was then exposed to selection for transformed cells on 50-200 μg/l chlorosulfuron and/or 50-450 μM glyphosate in solid medium. Glyphosate can also be used in a concentration range of about 5 to about 450 μM. Selection was applied until somatic embryos formed, and selection was again applied at the embryo germination step, and optionally during rooting of plantlets. Over 450 GAT-HRA transformation events were produced using selection with both chlorsulfuron and glyphosate.
(§2) Transformed cotton plants were rooted and then transferred to soil for further growth. Plants were then subjected to herbicide spray treatments in a greenhouse. […] Untransformed Coker 312 control plants were dead 2 weeks after glyphosate application. […] Plants transformed with both GAT and HRA were further subjected to an “over the top” application of the sulfonylurea herbicide rimsulfuron at a rate of 16 g active ingredient/hectare. […] In further experiments 32 g ai/ha rimsulfuron were applied to the cotton.

[4] = system: Untransformed Coker 312 control plants; experiment: Greenhouse over-the-top herbicide spray of cotton; format: in vivo, Gossypium hirsutum
Excerpt: as §1, §2

[5] = system: non-transformed GS3 embryos; experiment: Glyphosate kill curve; format: cell-based, maize; details: about 40 days culture
Method: A glyphosate kill curve was established by testing non-transformed embryos response on media with different levels of glyphosate. GS3 embryos were isolated from an immature ear and placed onto media containing glyphosate at 0.0, 0.5, 1.0, and 2.0 mM. After about 40 days culture, the response of the embryos were observed and recorded. Similarly, infected GS3 embryos with the GAT construct were placed onto media containing glyphosate at 0.0, 0.5, 1.0, and 2.0 mM. After about 40 days culture, the response of the infected embryos were observed and recorded (FIG. 7).
Western or PCR analysis has confirmed that these resistant calli were transformed. Currently, GAT has performed consistently as an effective selectable marker with excellent transformation efficiency in both GS3 and introEF09B genotypes (FIG. 10 and Table 45).

[6] = system: non-glyphosate resistant ryegrass (70-04); experiment: Glyphosate, metsulfuron-methyl and two additives on the control of ryegrass; format: in vivo; details: 0.5 L ha^−1 glyphosate (SCAT)
Method: The example was conducted on non-glyphosate resistant ryegrass. As provided in Table 23, all treatments that included glyphosate [180 g a.i. L ha^−1 (0.5 L glyphosate (SCAT®))] plus metsulfuron-methyl (BRUSH-OFF®) (5 and 10 g ha^−1) gave 100% control of the ryegrass.

[7] = system: Hairy Fleabane (Conyza bonariensis); experiment: Glyphosate, metsulfuron-methyl and two additives on the control of hairy fleabane; format: in vivo; details: glyphosate on its own; 10-15 leaf stage
Method: This example included the same treatments as used in Example 11, except the treatments were carried out on a glyphosate sensitive biotype of Kleinskraalhans (Conyza bonariensis).

GAT-HRA soybeans = experiment: Postemergence herbicide spray of soybeans, visual injury; format: in vivo; details: 35 g/ha
Method: (§3) Young regenerated transgenic plants were sprayed with 1× glyphosate (1× rate of glyphosate is 1120 g/ha of glyphosate isopropylamine) to cull segregants. Four replications were performed for each treatment. Plants were then treated with various herbicides, including glyphosate and ALS-inhibitor herbicides.
(§4) Six soybean seeds from each variety to be assayed were planted 1 cm deep in 5.5 (13.97 cm) inch square plastic container of a synthetic growth medium. […] When possible, containers were thinned to two uniform plants. Non-transgenic lines were thinned to two uniform plants per container.
(§5) Results are expressed below in Table 11 as the mean of four replications.

[8] = system: non-transgenic control soybeans; experiment: as above; format: in vivo; details: 35 g/ha
Method: as §3, §4, §5

Structure (SMILES): O=C(O)CNCP(=O)(O)O [Glyphosate, N-phosphonomethylglycine]
- % Visual Injury [1]: 100%
- Fresh Weight ([1]; 2 weeks after treatment): 1.0 g
- % Visual Injury [2]: 10%
- GAT-HRA transgenic plants that showed no deleterious symptoms ([3]; 1.5 lb acid equivalent per acre, 4-6 leaf stage, 14 days after application): approximately 50%
- state of control plants after application ([4]; 1.5 lb acid equivalent per acre, 4-6 leaf stage, 2 weeks after application): dead
- embryos that showed callus initiation ([5]; 0.5 mM glyphosate in medium): about half
- callus growth ([5]; 1.0 mM glyphosate in medium): very little callus growth
- callus growth ([5]; 2.0 mM glyphosate in medium): very little callus growth
- percentage printed with the plants that died [6]: 12%
- plants that eventually died [6]: 15 of the 16
- percentage printed with the plants killed [7]: 12%

Structure (SMILES): CCS(=O)(=O)c1cccnc1S(=O)(=O)NC(=O)Nc1nc(OC)cc(OC)n1 [Rimsulfuron, N-[[(4,6-dimethoxy-2-pyrimidinyl)amino]carbonyl]-3-(ethylsulfonyl)-2-pyridinesulfonamide]
- transgenic plants that showed no deleterious symptoms from the dual herbicide application ([3]; rimsulfuron 16 g active ingredient/hectare after glyphosate 1.5 lb ae/acre, 14 days after rimsulfuron, 28 days after glyphosate): approximately 35%
- damage of untransformed plants ([4]; 16 g active ingredient/hectare, in the absence of any glyphosate application): severe damage

Structure (SMILES): COC(=O)c1ccccc1S(=O)(=O)NC(=O)N(C)c1nc(C)nc(OC)n1 [Tribenuron-methyl, methyl 2-[[[[N-(4-methoxy-6-methyl-1,3,5-triazin-2-yl)-N-methylamino]carbonyl]-amino]sulfonyl]benzoate]
- damage of GAT- and HRA-containing transgenic soybeans (GAT-HRA soybeans): no significant damage
- effect on non-transgenic control soybeans [8]: killed
